This is an account of results in US11708318B2, “Polymorphic forms of RAD1901-2HCL” (Radius Pharmaceuticals, Inc., priority 2017, dated 2023).

Molecules are shown by their SMILES. Entries after “also recorded” stand apart in the source; their conditions may differ.

Holding throughout (assay type): physicochemical
The nature of series [1]: Storage at elevated temperature/humidity, analysed by XRPD. As for the experimental part: Samples 1 and 2 were characterized by XRPD at various conditions. XRPD patterns were collected for the samples at ambient condition as the samples were provided; at variable temperature (VT-XRPD); at variable humidity (VH-XRPD); after the samples were exposed to 40° C./75% RH for 1 week and 25° C./97% RH for 1 week, respectively; and after a GVS measurement wherein the samples were exposed to 0-90% RH. Samples 1 and 2 were also characterized by ^1H NMR, TGA, DSC, KF, IC, GVS (exposed to 0-90% RH), PLM, SEM, and HPLC (Table 5).

Series [2] is described as follows: Gravimetric Vapour Sorption (GVS), with XRPD of the recovered sample. The conditions noted are these: for Hygroscopicity (GVS): 0-90% RH. As for the experimental part:
Sorption isotherms were obtained using a SMS DVS Intrinsic moisture sorption analyzer, controlled by DVS Intrinsic Control software v1.0.1.2 (or v 1.0.1.3). The sample temperature was maintained at 25° C. by the instrument controls. The humidity was controlled by mixing streams of dry and wet nitrogen, with a total flow rate of 200 ml/min. The relative humidity was measured by a calibrated Rotronic probe (dynamic range of 1.0-100% RH), located near the sample. The weight change, (mass relaxation) of the sample as a function of % RH was constantly monitored by the microbalance (accuracy ±0.005 mg).
A sample (e.g., 20 mg) was placed in a tared mesh stainless steel basket under ambient conditions. The sample was loaded and unloaded at 40% RH and 25° C. (typical room conditions). A moisture sorption isotherm was performed as outlined below (2 scans giving 1 complete cycle). Standard isotherms were performed at 25° C. at 10% RH intervals over a 0-90% RH range. Data analysis was carried out using Microsoft Excel using DVS Analysis Suite v6.2 (or 6.1 or 6.0).
In a cycle of 2 scans, the first scan was performed with adsorption of 40-90% RH, followed by a second scan with desorption of 90-0% RH and adsorption of 0-40% RH, with intervals of 10% RH, at 25° C. with stability dm/dt of 0.002% ° C./min. The sorption time was 6 hr time out.
The sample was recovered after completion of the isotherm and re-analyzed by XRPD. Custom moisture sorption methods were also performed at 25° C. at fixed % RH intervals over a 0-95% RH range, with the purpose to fully understand the sorption/desorption behavior of the compound under elevated conditions.
To further explore the humidity behavior of Sample 1 (Form 1) upon exposure to high RH (>90%), custom GVS experiments were designed and carried out. Initially, the sample was treated by holding at 90 and then 95% RH for ˜12 hours to see if hydrate formation could be observed (HighRH method of Steps 1 and 2 of Table 2, FIGS. 6C-6D).
To test the stability of the hydrated state, GVS method HighRH_Desorp_3 was designed with a desorption step and subsequent adsorption (see Table 2 with steps 1-4, FIGS. 6E-6F).
Finally, to ensure complete conversion to the anhydrous and hydrated forms, a GVS experiment was designed to increase both the length of the desorption step at 0% RH, and the adsorption step at 95% RH, respectively (Table 3). Based on the weight stabilization observed in the kinetic plots for Sample 1 in HighRH and HighRH_Desorp_3 methods discussed above (FIGS. 6D and 6F), a holding time of 800 mins at 0% RH and 1600 mins at 95% RH were chosen. A double cycle was also recorded for this experiment to observe whether the sample would return to Form 1 or form a mixed anhydrous/hydrated species (see Table 3, FIGS. 6G-6H).

Series [3] can be described thus: Solubility assessment of amorphous RAD1901-2HCl in water/organic solvent system. The settings on record: organic solvent or mixture, thermodynamic from solid. As for the experimental part:
Samples of amorphous RAD1901-2HCl were prepared in water/organic solvent mixtures containing varying ratios of water. The organic solvents chosen were anhydrous ethanol, methanol and ethyl acetate. The percentage of water in the water/organic solvent mixtures was varied between 0 and 10% (v/v) in order to place a limit on the level of water that can be present during production processes, and to retain formation of Form 1. Above this water activity limit, the hydrated Form 3 will be obtained, as shown by GVS experiments (see FIGS. 6G and 20A). It should be noted that samples prepared in ethyl acetate, were either slurried in anhydrous ethyl acetate, or in water saturated ethyl acetate.
The water activity values for each water/organic solvent mixture are provided in Table 16, and were calculated using the reference given in Bell, Halling, Enzyme Microbiol. Technol. 1997, 20, 471, incorporated herein by reference.

Series [4] in a line: Solubility assessment of amorphous RAD1901-2HCl. The settings on record: thermodynamic from solid, read-out: Solubility assessment 10 vol. As for the experimental part: In a scale-up preparation of amorphous RAD1901-2HCl, RAD1901-2HCl (600 mg) was dissolved in water (20 vol., 12 mL) and filtered to remove any remaining solid particles. The solution was then aliquoted into 24 HPLC vials, frozen in a dry ice/acetone bath and the solvent removed by lyophilisation. Solids produced by lyophilization were used directly in solubility assessment and polymorph screens in Example 4.
Amorphous RAD1901-2HCl prepared as described in Example 3B was used directly in solubility assessment and polymorph screens (Table 15). XRPD patterns were further obtained for amorphous RAD1901-2HCl prepared using other solvents.

For the compound `CCNCCc1ccc(CN(CC)c2cc(OC)ccc2[C@@H]2CCc3cc(O)ccc3C2)cc1.Cl.Cl` [Form 1], the “XRPD after storage at 25° C./97% RH for 1 week” value in series [1] (25° C./97% RH, 1 week) is “converted to Form 3; also recorded: conversion towards a hydrated state Form 3”. Besides, the “XRPD after storage at 40° C./75% RH for 1 week” value in series [1] (40° C./75% RH, 1 week) is “stable”. Besides, the “Solid form on prolonged exposure to high RH (>90%)” value in series [1] (high RH (>90%), e.g. for 7 days) is listed as “converted to the hydrate Form 3”. For the same compound, the “Stability of the polymorphic form (overall characterization)” value in series [1] (relative to heat and/or humidity) was “stable”. In addition, in series [2], the “Hygroscopicity (GVS)” value is “relatively non-hygroscopic; also recorded: low hygroscopicity”. Further, in series [2] (above 90% RH), the “Solid form on exposure to high RH (>90%) by GVS” value was “irreversibly converted to the hydrate Form 3; also recorded: started converting to the hydrate Form 3”. Moreover, the “XRPD post GVS (uptake 0-90% RH)” value in series [2] (after exposure to 0-90% RH) is reported as “stable; also recorded: No changes”. Moreover, the “Hygroscopicity compared with Form 2” value in series [2] (than Form 2) is reported as “lower hygroscopicity”.
Take `CCNCCc1ccc(CN(CC)c2cc(OC)ccc2[C@@H]2CCc3cc(O)ccc3C2)cc1.Cl.Cl` [Form 2]: the “Solid form after exposure to >40% RH for 7 days” value in series [1] (>40% RH, 7 days) is “Form 3”. Also, the “Hygroscopicity (GVS)” value in series [2] is “hygroscopic”.
On to `CCNCCc1ccc(CN(CC)c2cc(OC)ccc2[C@@H]2CCc3cc(O)ccc3C2)cc1.Cl.Cl` [Form 3], for which the “Solid form after exposure to <40% RH for 8 hr” value in series [1] (<40% RH, 8 hr) is listed as “Form 2”.
In the case of `CCNCCc1ccc(CN(CC)c2cc(OC)ccc2[C@@H]2CCc3cc(O)ccc3C2)cc1.Cl.Cl` [amorphous RAD1901-2HCl], the solubility is greater than 100 mg/mL in series [3] (EtOH/H2O (90:10), EtOH/H2O (90:10), sample ID C1, read-out: Solubility assessment 10 vol.); less than 100 mg/mL in series [3] (EtOH/H2O (95:5), EtOH/H2O (95:5), sample ID C2, read-out: Solubility assessment 10 vol.); less than 100 mg/mL in series [3] (EtOH/H2O (98:2), EtOH/H2O (98:2), sample ID C3, read-out: Solubility assessment 10 vol.); less than 100 mg/mL in series [3] (EtOH/H2O (99:1), EtOH/H2O (99:1), sample ID C4, read-out: Solubility assessment 10 vol.); greater than 100 mg/mL in series [3] (MeOH/H2O (90:10), MeOH/H2O (90:10), sample ID C5, read-out: Solubility assessment 10 vol.); greater than 100 mg/mL in series [3] (MeOH/H2O (95:5), MeOH/H2O (95:5), sample ID C6, read-out: Solubility assessment 10 vol.). The solubility in series [3] (MeOH/H2O (98:2), MeOH/H2O (98:2), sample ID C7, read-out: Solubility assessment 10 vol.) is less than 100 mg/mL; in series [3] (MeOH/H2O (99:1), MeOH/H2O (99:1), sample ID C8, read-out: Solubility assessment 10 vol.) it was less than 100 mg/mL; in series [3] (anhydrous ethyl acetate, Ethyl acetate (anhydrous), sample ID C9, read-out: Solubility assessment 10 vol.), less than 100 mg/mL; in series [3] (anhydrous ethyl acetate, Ethyl acetate (anhydrous), sample ID C9, read-out: Solubility assessment 20 vol) it was less than 50 mg/mL; in series [3] (anhydrous ethyl acetate, Ethyl acetate (anhydrous), sample ID C9, read-out: Solubility assessment 30 vol), less than 33.3 mg/mL; in series [3] (water-saturated ethyl acetate, Water-saturated ethyl acetate, sample ID C10, read-out: Solubility assessment 10 vol.), less than 100 mg/mL. Also, the solubility in series [3] (water-saturated ethyl acetate, Water-saturated ethyl acetate, sample ID C10, read-out: Solubility assessment 20 vol) is less than 50 mg/mL; in series [3] (water-saturated ethyl acetate, Water-saturated ethyl acetate, sample ID C10, read-out: Solubility assessment 30 vol) it was less than 33.3 mg/mL; in series [4] (organic solvent or mixture, 1,2-dimethoxyethane, sample ID B16), less than 100 mg/mL; in series [4] (organic solvent or mixture, 1,4-Dioxane, sample ID B14), less than 100 mg/mL; in series [4] (organic solvent or mixture, 1-propanol, sample ID B8), less than 100 mg/mL; in series [4] (organic solvent or mixture, 2-propanol, sample ID B6) it was less than 100 mg/mL. Moreover, the solubility in series [4] (organic solvent or mixture, 10% water/EtOH, sample ID B22) is greater than 100 mg/mL; in series [4] (organic solvent or mixture, 10% water/IPA, sample ID B23), less than 100 mg/mL; in series [4] (organic solvent or mixture, 10% water/THF, sample ID B24) it was less than 100 mg/mL; in series [4] (organic solvent or mixture, Acetone, sample ID B9), less than 100 mg/mL; in series [4] (organic solvent or mixture, Acetonitrile, sample ID B20), less than 100 mg/mL; in series [4] (organic solvent or mixture, Dichloromethane, sample ID B18), less than 100 mg/mL. Moreover, the solubility in series [4] (organic solvent or mixture, Dimethyl sulfoxide, sample ID B11) is greater than 100 mg/mL; in series [4] (organic solvent or mixture, Ethanol, sample ID B10), less than 100 mg/mL; in series [4] (organic solvent or mixture, Ethyl acetate, sample ID B3), less than 100 mg/mL; in series [4] (organic solvent or mixture, Isopropyl acetate, sample ID B4), less than 100 mg/mL; in series [4] (organic solvent or mixture, MEK, sample ID B7), less than 100 mg/mL; in series [4] (organic solvent or mixture, MIBK, sample ID B5), less than 100 mg/mL. Further, the solubility in series [4] (organic solvent or mixture, Methanol, sample ID B19) is less than 100 mg/mL; in series [4] (organic solvent or mixture, Nitromethane, sample ID B21) it was less than 100 mg/mL; in series [4] (organic solvent or mixture, Propyl acetate, sample ID B2), less than 100 mg/mL; in series [4] (organic solvent or mixture, TBME, sample ID B13), less than 100 mg/mL; in series [4] (organic solvent or mixture, Tetrahydrofuran, sample ID B17), less than 100 mg/mL; in series [4] (organic solvent or mixture, Toluene, sample ID B15), less than 100 mg/mL. In addition, the solubility in series [4] (organic solvent or mixture, n-Heptane, sample ID B1) is less than 100 mg/mL; in series [4] (Water, sample ID B12), greater than 100 mg/mL.
